Several values for one entry are separate records, joined by “and”; a condition that tells them apart may be missing. Identical values can stand only once. Inconclusive results and toxic doses are left out.
Test system: BDF1 mice, B16 melanoma ip, median survival T/C
Test: NCI In Vivo Anticancer Drug Screen. Data for tumor model B16 Melanoma (intraperitoneal) in B6D2F1 (BDF1) mice
Conditions: endpoint: median survival time, higher = longer survival
Procedure, shortened: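 Each result divides a survival or tumor-size measurement in the compound-treated group by the same measurement in the vehicle group.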

[1] = dose: 6.25 mg/kg/injection, schedule: Q01DX009 (ip), vehicle: Klucel (hydroxypropylcellulose) (HPC)
[2] = dose: 100.0 mg/kg/injection, schedule: Q01DX009 (ip), vehicle: Klucel (hydroxypropylcellulose) (HPC)
[3] = dose: 0.75 mg/kg/injection, schedule: Q01DX009 (ip), vehicle: saline with Tween-80
[4] = dose: 1.5 mg/kg/injection, schedule: Q01DX009 (ip), vehicle: saline with Tween-80
[5] = dose: 3.0 mg/kg/injection, schedule: Q01DX009 (ip), vehicle: saline with Tween-80
[6] = dose: 12.5 mg/kg/injection, schedule: Q01DX009 (ip), vehicle: saline
[7] = dose: 25.0 mg/kg/injection, schedule: Q01DX009 (ip), vehicle: saline
[8] = dose: 6.25 mg/kg/injection, schedule: Q01DX009 (ip), vehicle: saline with Tween-80
[9] = dose: 12.5 mg/kg/injection, schedule: Q01DX009 (ip), vehicle: saline with Tween-80
[10] = dose: 25.0 mg/kg/injection, schedule: Q01DX009 (ip), vehicle: saline with Tween-80
[11] = dose: 1.56 mg/kg/injection, schedule: Q01DX009 (ip), vehicle: saline with Tween-80
[12] = dose: 3.13 mg/kg/injection, schedule: Q01DX009 (ip), vehicle: saline with Tween-80

Structure (SMILES): C=C(C)CNC1=C(C)C(=O)C2=C(C1=O)[C@H](COC(N)=O)[C@]1(OC)[C@@H]3N[C@@H]3CN21
- T/C (dose: 0.13 mg/kg/injection, schedule: Q01DX001 (ip), vehicle: distilled water + Tween-80): 100 % of control
- T/C (dose: 0.25 mg/kg/injection, schedule: Q01DX001 (ip), vehicle: distilled water + Tween-80): 114 % of control
- T/C (dose: 1.5 mg/kg/injection, schedule: Q04DX003 (ip), vehicle: distilled water + Tween-80): 123 % of control
- T/C (dose: 2.0 mg/kg/injection, schedule: Q01DX001 (ip), vehicle: distilled water + Tween-80): 153 % of control
- T/C (dose: 3.0 mg/kg/injection, schedule: Q04DX003 (ip), vehicle: distilled water + Tween-80): 157 % of control
- T/C (dose: 4.0 mg/kg/injection, schedule: Q01DX001 (ip), vehicle: distilled water + Tween-80): 167 % of control
- T/C (dose: 6.0 mg/kg/injection, schedule: Q04DX003 (ip), vehicle: distilled water + Tween-80): 215 % of control
- T/C (dose: 12.0 mg/kg/injection, schedule: Q04DX003 (ip), vehicle: distilled water + Tween-80): 285 % of control

Structure (SMILES): O=[As](O)(O)c1ccc(Nc2nc(Cl)nc(Cl)n2)cc1
- T/C (dose: 3.13 mg/kg/injection, schedule: Q01DX009 (ip), vehicle: Klucel (hydroxypropylcellulose) (HPC)): 100 % of control
- T/C [1]: 110 % of control

Structure (SMILES): O=C(O)/C=C/C(=O)Nc1ccccc1
- T/C (dose: 100.0 mg/kg/injection, schedule: Q04DX003 (ip), vehicle: Klucel (hydroxypropylcellulose) (HPC)): 106 % of control
- T/C (dose: 200.0 mg/kg/injection, schedule: Q04DX003 (ip), vehicle: Klucel (hydroxypropylcellulose) (HPC)): 96 % of control
- T/C (dose: 400.0 mg/kg/injection, schedule: Q04DX003 (ip), vehicle: Klucel (hydroxypropylcellulose) (HPC)): 103 % of control

Structure (SMILES): O=C(OC1CCCCCCC1)C(F)(F)F
- T/C [2]: 100 % of control
- T/C (dose: 400.0 mg/kg/injection, schedule: Q01DX009 (ip), vehicle: Klucel (hydroxypropylcellulose) (HPC)): 117 % of control

Structure (SMILES): N=P(N[P+](N)(c1ccccc1)c1ccccc1)(c1ccccc1)c1ccccc1
- T/C (dose: 1.56 mg/kg/injection, schedule: Q01DX009 (ip), vehicle: Klucel (hydroxypropylcellulose) (HPC)): 101 % of control
- T/C (dose: 3.12 mg/kg/injection, schedule: Q01DX009 (ip), vehicle: Klucel (hydroxypropylcellulose) (HPC)): 107 % of control
- T/C [1]: 108 % of control

Structure (SMILES): COc1ccc([I+]c2ccc(OC)cc2)cc1
- T/C [3]: 95 % of control
- T/C [4]: 95 % of control
- T/C [5]: 100 % of control

Structure (SMILES): N=c1ccn2c(n1)OC1C(O)C(CO)OC12 (stereo unspecified)
- T/C [6]: 98 % of control
- T/C [7]: 96 % of control and 109 % of control
- T/C (dose: 50.0 mg/kg/injection, schedule: Q01DX009 (ip), vehicle: saline): 102 % of control and 108 % of control and 117 % of control
- T/C (dose: 100.0 mg/kg/injection, schedule: Q01DX009 (ip), vehicle: saline sonified): 104 % of control
- T/C (dose: 100.0 mg/kg/injection, schedule: Q01DX009 (ip), vehicle: saline): 120 % of control and 105 % of control
- T/C (dose: 200.0 mg/kg/injection, schedule: Q01DX009 (ip), vehicle: saline sonified): 104 % of control
- T/C (dose: 200.0 mg/kg/injection, schedule: Q01DX009 (ip), vehicle: saline): 114 % of control and 124 % of control
- T/C (dose: 400.0 mg/kg/injection, schedule: Q01DX009 (ip), vehicle: saline sonified): 110 % of control

Structure (SMILES): NC(=O)c1cc2c(N)[nH]nc2nc1N
- T/C (dose: 6.25 mg/kg/injection, schedule: Q01DX009 (ip), vehicle: saline): 106 % of control
- T/C [6]: 100 % of control
- T/C [7]: 95 % of control

Structure (SMILES): CC(=O)Nc1cccc2c1CCCC2
- T/C (dose: 100.0 mg/kg/injection, schedule: Q04DX003 (ip), vehicle: gum acacia): 113 % of control
- T/C (dose: 200.0 mg/kg/injection, schedule: Q04DX003 (ip), vehicle: gum acacia): 97 % of control
- T/C (dose: 400.0 mg/kg/injection, schedule: Q04DX003 (ip), vehicle: gum acacia): 95 % of control

Structure (SMILES): CCCCC(CC)COP(=O)(CC(CC)CCCC)OCC(CC)CCCC (stereo unspecified)
- T/C [8]: 94 % of control
- T/C (dose: 6.25 mg/kg/injection, schedule: Q04DX003 (ip), vehicle: saline): 107 % of control
- T/C (dose: 8.0 mg/kg/injection, schedule: Q04DX003 (ip), vehicle: saline with Tween-80): 102 % of control
- T/C (dose: 12.0 mg/kg/injection, schedule: Q04DX003 (ip), vehicle: saline with Tween-80): 97 % of control
- T/C [9]: 89 % of control
- T/C (dose: 18.0 mg/kg/injection, schedule: Q04DX003 (ip), vehicle: saline with Tween-80): 100 % of control
- T/C [10]: 86 % of control
- T/C (dose: 25.0 mg/kg/injection, schedule: Q04DX003 (ip), vehicle: saline): 123 % of control

Structure (SMILES): O=C(C=C(C(F)(F)F)C(F)(F)F)c1cccc(S(=O)(=O)F)c1
- T/C [11]: 86 % of control
- T/C [12]: 93 % of control
- T/C [8]: 89 % of control
- T/C (dose: 8.0 mg/kg/injection, schedule: Q04DX003 (ip), vehicle: saline): 105 % of control
- T/C (dose: 12.0 mg/kg/injection, schedule: Q04DX003 (ip), vehicle: saline): 105 % of control
- T/C (dose: 18.0 mg/kg/injection, schedule: Q04DX003 (ip), vehicle: saline): 110 % of control

Structure (SMILES): COC(=O)C1(C(=O)OC)C=CCCC1=O
- T/C [2]: 99 % of control
- T/C (dose: 200.0 mg/kg/injection, schedule: Q01DX009 (ip), vehicle: Klucel (hydroxypropylcellulose) (HPC)): 97 % of control

Structure (SMILES): CC(C)CC(NC(=O)C(N)C(C)C)C(=O)NC(CCCCN)C(=O)Nc1ccc(N(CCCl)CCCl)cc1 (stereo unspecified)
- T/C (dose: 0.74 mg/kg/injection, schedule: Q01DX009 (ip), vehicle: saline): 105 % of control
- T/C (dose: 1.49 mg/kg/injection, schedule: Q01DX009 (ip), vehicle: saline): 109 % of control and 120 % of control
- T/C (dose: 5.95 mg/kg/injection, schedule: Q01DX009 (ip), vehicle: saline): 159 % of control and 182 % of control

Structure (SMILES): N#CC(C#N)=CN1CCCCCC1
- T/C [12]: 107 % of control
- T/C (dose: 3.13 mg/kg/injection, schedule: Q04DX003 (ip), vehicle: saline with Tween-80): 93 % of control
- T/C [8]: 102 % of control
- T/C (dose: 6.25 mg/kg/injection, schedule: Q04DX003 (ip), vehicle: saline with Tween-80): 97 % of control
- T/C [9]: 102 % of control
- T/C (dose: 12.5 mg/kg/injection, schedule: Q04DX003 (ip), vehicle: saline with Tween-80): 100 % of control

Structure (SMILES): O=[N+]([O-])c1cccnc1Oc1cccc(C(F)(F)F)c1
- T/C (dose: 135.0 mg/kg/injection, schedule: Q04DX003 (ip), vehicle: Klucel (hydroxypropylcellulose) (HPC)): 110 % of control
- T/C (dose: 195.0 mg/kg/injection, schedule: Q04DX003 (ip), vehicle: Klucel (hydroxypropylcellulose) (HPC)): 115 % of control
- T/C (dose: 450.0 mg/kg/injection, schedule: Q04DX003 (ip), vehicle: Klucel (hydroxypropylcellulose) (HPC)): 100 % of control

Structure (SMILES): COC(=O)CCC1=C(C)c2cc3[n-]c(cc4nc(cc5[n-]c(cc1n2)c(CCC(=O)OC)c5C)C=C4C)cc3C.[Ni+2]
- T/C [11]: 91 % of control
- T/C [12]: 88 % of control
- T/C [8]: 86 % of control

Structure (SMILES): CC(=O)[O][Hg][c]1s[c]([Hg][O]C(C)=O)[c]([Hg][O]C(C)=O)[c]1[Hg][O]C(C)=O
- T/C [3]: 102 % of control
- T/C [4]: 92 % of control
- T/C [5]: 87 % of control
- T/C (dose: 6.0 mg/kg/injection, schedule: Q01DX009 (ip), vehicle: saline with Tween-80): 97 % of control

Structure (SMILES): OC1CCCC2CCCNC12 (stereo unspecified)
- T/C (dose: 3.12 mg/kg/injection, schedule: Q01DX009 (ip), vehicle: saline with Tween-80): 100 % of control
- T/C [8]: 108 % of control
- T/C [9]: 99 % of control
- T/C [10]: 96 % of control
- T/C (dose: 50.0 mg/kg/injection, schedule: Q01DX009 (ip), vehicle: saline with Tween-80): 96 % of control

Structure (SMILES): O=S(=O)(O)O
- T/C [1]: 111 % of control
- T/C (dose: 12.5 mg/kg/injection, schedule: Q01DX009 (ip), vehicle: Klucel (hydroxypropylcellulose) (HPC)): 106 % of control
- T/C (dose: 25.0 mg/kg/injection, schedule: Q01DX009 (ip), vehicle: Klucel (hydroxypropylcellulose) (HPC)): 99 % of control
- T/C (dose: 50.0 mg/kg/injection, schedule: Q01DX009 (ip), vehicle: Klucel (hydroxypropylcellulose) (HPC)): 93 % of control

Structure (SMILES): C1CC2(CCN1)SSC1(CCNCC1)S2
- T/C (dose: 100.0 mg/kg/injection, schedule: Q04DX003 (ip), vehicle: saline): 100 % of control
- T/C (dose: 200.0 mg/kg/injection, schedule: Q04DX003 (ip), vehicle: saline): 100 % of control
